Data reported in patent US8425880B1, “Metal-containing materials for treatment of bacterial conditions” (priority 2007, dated 2013).
“And” between values parts separate entries of the source, which are not always exact repeats. Identical values can stand only once.

Experiments:
C. perfringens = type: cell-based, Clostridium perfringens
C. difficile = type: cell-based, Clostridium difficile; conditions: for Microdilution MIC: pH 4
[1] = test system: C. difficile spores (strain ATCC 43596); test: Sporicidal assay; type: cell-based, Clostridium difficile; design: key to growth after 5-6 days of subculture: presence (+) or absence (−) of growth after 5-6 days of subculture; presence (+) or absence (−) of growth after 5-6 days of subculture
Experimental: Louis, Mo.). […] Silver preparations were filtered at 0.2 microns and stored in the dark at room temperature. Spore germination was induced as previously described in, for example, […] and Sonenshein A L. Mol Microbiol. 2003 48(3): 811-821; and Ionesco H. C R Acad Sci Hebd […]. 25; 287(6):659-61. C. difficile suspended in BHI was heat-killed at 80° C. for 10 minutes, and germination then stimulated by a 30-min incubation at 50° C. in the presence of 165 μM thioglycollate, followed by a 15-min incubation at 37° C. in the presence of 4 mg/ml lysozyme.

Compound	MIC (C. perfringens)	MIC (C. difficile)	Microdilution MIC (C. difficile)	inactivation of C. difficile spores [1]	growth after 5-6 days of subculture ([1]; Expt 2, Conc. 0.00005%)	growth after 5-6 days of subculture ([1]; Expt 2, Conc. 0.0005%)	growth after 5-6 days of subculture ([1]; Expt 2, Conc. 0.005%)	growth after 5-6 days of subculture ([1]; Expt 2, Conc. 0.05%)	growth after 5-6 days of subculture ([1]; Expt 3, Conc. 0.01%)	growth after 5-6 days of subculture ([1]; Expt 3, Conc. 0.03%)	growth after 5-6 days of subculture ([1]; Expt 1, Conc. 0.02%)	growth after 5-6 days of subculture ([1]; Expt 1, Conc. 0.2%)	growth after 5-6 days of subculture ([1]; Expt 1, Conc. 2%)
O=[N+]([O-])[O-].[Ag+] [AgNO3, Silver nitrate]	92 ppm (μg/ml)	18 (8-23) ppm (μg/ml)	18 ppm and 9 ppm	inactivated the spores of C. difficile	+	−	−	−	−	−			
O=CCCCC=O [Glutaraldehyde, glutaraldehyde]											+	−	−
silver (I) oxide [Ag2O]			16 ppm and 31 ppm	inactivated the spores of C. difficile					−	−			
